Results reported in publication PMC10196118, “Evidence for broad cross-reactivity of the SARS-CoV-2 NSP12-directed CD4^+ T-cell response with pre-primed responses directed against common cold coronaviruses” (Frontiers in Immunology, 2023).

Tested on: pre-cultured PBMCs (NSP12-specific T cells)
Assay: IFN-γ ELISpot with single 15-mer peptides after 11–13 days in vitro peptide-pool T-cell expansion
Type: cell-based, human
Settings: for peptide-specific response, donor HH-N12-18, post COVID-19 / peptide-specific response, donor HH-N12-18, pre COVID-19 / peptide-specific response, donor HH-N12-34, post COVID-19 / peptide-specific response, donor HH-N12-34, pre COVID-19 / peptide-specific response, donor HH-N12-35, post COVID-19 / peptide-specific response, donor HH-N12-35, pre COVID-19 / peptide-specific response, donor HH-N12-36, post COVID-19 / peptide-specific response, donor HH-N12-36, pre COVID-19 / peptide-specific response, donor HH-N12-37, post COVID-19 / peptide-specific response, donor HH-N12-37, pre COVID-19: single NSP12 15-mer peptides
[1] = donor HH-N12-18, sample post COVID-19
[2] = donor HH-N12-18, sample pre COVID-19
[3] = donor HH-N12-34, sample post COVID-19
[4] = donor HH-N12-34, sample pre COVID-19
[5] = donor HH-N12-35, sample post COVID-19
[6] = donor HH-N12-35, sample pre COVID-19
[7] = donor HH-N12-36, sample post COVID-19
[8] = donor HH-N12-36, sample pre COVID-19
[9] = donor HH-N12-37, sample post COVID-19
[10] = donor HH-N12-37, sample pre COVID-19

| Sequence | peptide-specific response, donor HH-N12-18, post COVID-19 [1] | peptide-specific response, donor HH-N12-18, pre COVID-19 [2] | peptide-specific response, donor HH-N12-34, post COVID-19 [3] | peptide-specific response, donor HH-N12-34, pre COVID-19 [4] | peptide-specific response, donor HH-N12-35, post COVID-19 [5] | peptide-specific response, donor HH-N12-35, pre COVID-19 [6] | peptide-specific response, donor HH-N12-36, post COVID-19 [7] | peptide-specific response, donor HH-N12-36, pre COVID-19 [8] | peptide-specific response, donor HH-N12-37, post COVID-19 [9] | peptide-specific response, donor HH-N12-37, pre COVID-19 [10] | peptide-specific T-cell response, donor HH-N12-18, post COVID-19 (donor HH-N12-18, sample post COVID-19, single NSP12 15-mer peptide, 0 = no response) | peptide-specific T-cell response, donor HH-N12-18, pre COVID-19 (donor HH-N12-18, sample pre COVID-19, single NSP12 15-mer peptide, 0 = no response) | peptide-specific T-cell response, donor HH-N12-34, post COVID-19 (donor HH-N12-34, sample post COVID-19, single NSP12 15-mer peptide, 0 = no response) | peptide-specific T-cell response, donor HH-N12-34, pre COVID-19 (donor HH-N12-34, sample pre COVID-19, single NSP12 15-mer peptide, 0 = no response) | peptide-specific T-cell response, donor HH-N12-35, post COVID-19 (donor HH-N12-35, sample post COVID-19, single NSP12 15-mer peptide, 0 = no response) | peptide-specific T-cell response, donor HH-N12-35, pre COVID-19 (donor HH-N12-35, sample pre COVID-19, single NSP12 15-mer peptide, 0 = no response) | peptide-specific T-cell response, donor HH-N12-36, post COVID-19 (donor HH-N12-36, sample post COVID-19, single NSP12 15-mer peptide, 0 = no response) | peptide-specific T-cell response, donor HH-N12-36, pre COVID-19 (donor HH-N12-36, sample pre COVID-19, single NSP12 15-mer peptide, 0 = no response) | peptide-specific T-cell response, donor HH-N12-37, post COVID-19 (donor HH-N12-37, sample post COVID-19, single NSP12 15-mer peptide, 0 = no response) | peptide-specific T-cell response, donor HH-N12-37, pre COVID-19 (donor HH-N12-37, sample pre COVID-19, single NSP12 15-mer peptide, 0 = no response) |
| --- | --- | --- | --- | --- | --- | --- | --- | --- | --- | --- | --- | --- | --- | --- | --- | --- | --- | --- | --- | --- |
| IYNLLKDCPAVAKHD [compound 18] | 0 | 0 | 0 | 0 | 0 | 0 | 0 | 0 | 0.023 | 0 |  |  |  |  |  |  |  |  |  |  |
| MRNAGIVGVLTLDNQ [compound 40] | 0 | 0 | 0.032 | 0 | 0 | 0 | 0 | 0 | 0 | 0 |  |  |  |  |  |  |  |  |  |  |
| TPGSGVPVVDSYYSL [compound 46] | 0 | 0 | 0 | 0 | 0 | 0 | 0 | 0 | 0 | 0 |  |  |  |  |  |  |  |  |  |  |
| PNCVNCLDDRCILHC [compound 60] | 0 | 0 | 0 | 0 | 0 | 0 | 0.022 | 0 | 0 | 0 |  |  |  |  |  |  |  |  |  |  |
| RIMASLVLARKHTTC [compound 127] | 0 | 0.031 | 0 | 0 | 0 | 0.074 | 0 | 0 | 0 | 0.051 |  |  |  |  |  |  |  |  |  |  |
| KLFDRYFKYWDQTYH [compound 57] | 0 | 0 | 0 | 0 | 0 | 0 | 0.029 | 0 | 0 | 0 |  |  |  |  |  |  |  |  |  |  |
| TSTDVVYRAFDIYND [compound 6] | 0 | 0 | 0 | 0 | 0 | 0 | 0 | 0 | 0 | 0 |  |  |  |  |  |  |  |  |  |  |
| DLNGNWYDFGDFIQT [compound 43] | 0.035 | 0 | 0 | 0 | 0 | 0 | 0 | 0.028 | 0 | 0 |  |  |  |  |  |  |  |  |  |  |
| LTAESHVDTDLTKPY [compound 51] | 0 | 0 | 0 | 0 | 0 | 0 | 0 | 0.05 | 0 | 0 |  |  |  |  |  |  |  |  |  |  |
| KDCPAVAKHDFFKFR [compound 19] | 0 | 0 | 0 | 0 | 0 | 0 | 0 | 0 | 0 | 0 |  |  |  |  |  |  |  |  |  |  |
| EDDNLIDSYFVVKRH [compound 13] | 0 | 0 | 0 | 0 | 0 | 0 | 0 | 0 | 0 | 0 |  |  |  |  |  |  |  |  |  |  |
| MLKTVYSDVENPHLM [compound 121] | 0 | 0 | 0 | 0 | 0 | 0 | 0.052 | 0 | 0 | 0 |  |  |  |  |  |  |  |  |  |  |
| SFLNRVCGVSAARLT [compound 2] | 0 | 0 | 0 | 0 | 0 | 0 | 0 | 0 | 0 | 0 |  |  |  |  |  |  |  |  |  |  |
| MILSDDAVVCFNSTY [compound 152] |  |  |  |  |  |  |  |  |  |  | 0 | 0 | 0 | 0 | 0 | 0 | 0 | 0 | 0 | 0 |
| SADAQSFLNRVCGVS [compound 1] | 0 | 0 | 0 | 0 | 0 | 0 | 0.037 | 0 | 0 | 0 |  |  |  |  |  |  |  |  |  |  |
| DQTYHPNCVNCLDDR [compound 59] | 0 | 0 | 0 | 0 | 0 | 0 | 0 | 0.047 | 0 | 0 |  |  |  |  |  |  |  |  |  |  |
| VYRAFDIYNDKVAGF [compound 7] | 0 | 0 | 0 | 0 | 0 | 0 | 0 | 0 | 0 | 0 |  |  |  |  |  |  |  |  |  |  |
